Results as given in patent US7919295B2, “Polyol oxidases” (Danisco US Inc., priority 2006, dated 2011).

Test system: Sorbitol oxidase
Test: Substrate range study of sorbitol oxidase (relative POx activities for substrates)
Assay type: biochemical, Streptomyces sp. H-7775
[1] = substrates 50 mM in 10 mM phosphate buffer pH 7.0, relative to sorbitol

Experimental: All substrates used in the assay were 50 mM in 10 mM phosphate buffer pH 7.0.

Compound	Relative Activity (+, 0) [1]	Relative Activity (+, 0) (pH 7)
OC[C@@H](O)[C@@H](O)[C@H](O)[C@@H](O)CO [D-Sorbitol]	++++++ (++++++=100%)	
OCCO [Ethylene glycol]		0
CC(O)CO (stereo not drawn) [Propylene glycol]	0	
